Patent US8389739B1, “Modulators of retinoid-related orphan receptor gamma” (Orphagen Pharmaceuticals, priority 2006, dated 2013)
Like-named read-outs stand apart in the source and are kept apart here.

Assays:
Assay in all cases: Crossreactive receptor transcriptional assay (Gal4 hybrid)
Format in all cases: cell-based
[1] = target: T1, hFXR (farnesoid X receptor) (Homo sapiens, UniProt Q96RI1)
T1 construct: 192-473; expressed in transfected cells; host or cells: CHO cells, transient transfection
T1 sequence (Q96RI1 192-472 isoform Q96RI1-2): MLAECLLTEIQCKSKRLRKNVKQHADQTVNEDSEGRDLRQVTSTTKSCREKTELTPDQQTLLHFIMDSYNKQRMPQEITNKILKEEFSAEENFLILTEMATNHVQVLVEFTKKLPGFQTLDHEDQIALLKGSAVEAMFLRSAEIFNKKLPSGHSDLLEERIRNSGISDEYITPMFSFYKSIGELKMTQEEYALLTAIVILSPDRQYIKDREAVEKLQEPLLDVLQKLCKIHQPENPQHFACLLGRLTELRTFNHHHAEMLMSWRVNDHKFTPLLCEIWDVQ

hAR (androgen receptor) = target: T2, hAR (androgen receptor) (Homo sapiens, UniProt P10275)
T2 construct: 646-919; expressed in transfected cells; host or cells: CHO cells, transient transfection
T2 sequence (P10275 647-920): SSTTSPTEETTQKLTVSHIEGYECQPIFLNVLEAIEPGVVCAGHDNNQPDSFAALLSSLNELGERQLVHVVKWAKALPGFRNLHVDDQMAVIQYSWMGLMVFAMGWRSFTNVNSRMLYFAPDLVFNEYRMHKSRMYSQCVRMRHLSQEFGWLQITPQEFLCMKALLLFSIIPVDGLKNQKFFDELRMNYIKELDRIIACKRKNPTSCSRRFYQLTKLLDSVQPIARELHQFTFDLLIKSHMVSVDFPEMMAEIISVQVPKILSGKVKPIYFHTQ

hPPARγ = target: T3, hPPARγ (Homo sapiens, UniProt P37231)
T3 construct: 175-477; expressed in transfected cells; host or cells: CHO cells, transient transfection
T3 sequence (P37231 175-477 isoform P37231-2): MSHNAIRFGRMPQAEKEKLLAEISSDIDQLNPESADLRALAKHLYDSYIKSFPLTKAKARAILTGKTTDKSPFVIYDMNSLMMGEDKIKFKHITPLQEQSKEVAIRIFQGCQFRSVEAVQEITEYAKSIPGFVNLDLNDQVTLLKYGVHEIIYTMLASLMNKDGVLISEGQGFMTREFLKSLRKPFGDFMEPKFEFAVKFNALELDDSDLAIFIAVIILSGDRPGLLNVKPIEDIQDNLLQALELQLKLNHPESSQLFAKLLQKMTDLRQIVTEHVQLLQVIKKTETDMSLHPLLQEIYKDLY

[2] = target: T4, mGR (glucocorticoid receptor) (Mus musculus, UniProt P06537)
T4 construct: 524-793; expressed in transfected cells; host or cells: CHO cells, transient transfection
T4 sequence (P06537 524-793 isoform P06537-2): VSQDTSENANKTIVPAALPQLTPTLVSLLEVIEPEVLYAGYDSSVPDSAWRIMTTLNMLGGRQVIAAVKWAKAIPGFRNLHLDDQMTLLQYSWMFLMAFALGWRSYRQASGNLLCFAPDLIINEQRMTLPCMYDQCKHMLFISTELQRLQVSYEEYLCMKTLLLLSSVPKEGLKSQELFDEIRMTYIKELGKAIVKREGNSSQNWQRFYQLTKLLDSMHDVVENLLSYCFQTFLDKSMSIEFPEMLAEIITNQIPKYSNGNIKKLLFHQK

hPPARα = target: T5, hPPARα (Homo sapiens, UniProt Q07869)
T5 construct: 166-468; expressed in transfected cells; host or cells: CHO cells, transient transfection
T5 sequence (Q07869 166-468): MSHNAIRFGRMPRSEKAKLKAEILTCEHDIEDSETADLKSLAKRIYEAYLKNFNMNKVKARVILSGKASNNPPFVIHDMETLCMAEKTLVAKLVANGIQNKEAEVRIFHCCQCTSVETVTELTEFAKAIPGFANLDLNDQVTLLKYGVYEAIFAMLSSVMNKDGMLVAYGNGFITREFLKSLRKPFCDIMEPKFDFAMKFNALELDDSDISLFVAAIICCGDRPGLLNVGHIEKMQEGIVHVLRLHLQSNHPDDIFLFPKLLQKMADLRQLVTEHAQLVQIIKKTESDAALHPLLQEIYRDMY

[3] = target: T6, hRXRα (retinoid X receptor alpha) (Homo sapiens, UniProt P19793)
T6 construct: 203-462; expressed in transfected cells; host or cells: CHO cells, transient transfection
T6 sequence (P19793 203-462): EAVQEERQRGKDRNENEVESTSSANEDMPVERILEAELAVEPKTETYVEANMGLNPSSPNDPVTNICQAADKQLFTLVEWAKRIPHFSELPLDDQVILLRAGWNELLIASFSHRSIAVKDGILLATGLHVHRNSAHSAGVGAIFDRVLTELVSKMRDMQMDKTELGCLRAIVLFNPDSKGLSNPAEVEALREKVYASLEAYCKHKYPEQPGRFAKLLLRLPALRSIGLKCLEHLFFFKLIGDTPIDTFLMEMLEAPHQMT

[4] = Table 6, read-out: Potency (EC50) at hFXR
[5] = Table 6, read-out: Potency (EC50) at hAR
[6] = Table 6, read-out: Potency (EC50) at hPPARγ
[7] = Table 6, read-out: Potency (EC50) at mGR
[8] = Table 6, RORγ ligands: no significant activity at 20 μM, read-out: Potency (EC50) at hPPARα
[9] = Table 6, read-out: Potency (EC50) at hRXRα

| EC50 [1, 4] [µM] | EC50 (hAR (androgen receptor); [5]) [µM] | EC50 (hPPARγ; [6]) [µM] | EC50 [2, 7] [µM] | EC50 (hPPARα; [8]) [µM] | EC50 [3, 9] [µM] | SMILES | EC50 [1] [µM] | EC50 (hAR (androgen receptor)) [µM] | EC50 (hPPARγ) [µM] | EC50 [2] [µM] | EC50 (hPPARα) [µM] | EC50 [3] [µM] |
| --- | --- | --- | --- | --- | --- | --- | --- | --- | --- | --- | --- | --- |
|  | > 10 | > 10 | > 10 | > 10 | > 10 | O=S(=O)(c1ccccc1)N(CC(F)(F)F)c1ccc(C(O)(C(F)(F)F)C(F)(F)F)cc1 [Compound T0901317, N-(2,2,2-Trifluoro-ethyl)-N-[4-(2,2,2-trifluoro-1-hydroxy-1-trifluoromethyl-ethyl)-phenyl]-benzenesulfonamide, reference compound] |  |  |  |  |  |  |
|  |  |  |  |  |  | C[C@@H]1CC[C@@]2(OC1)O[C@H]1C[C@H]3[C@@H]4CC[C@H]5C[C@@H](O)CC[C@]5(C)[C@H]4C[C@@H](O)[C@]3(C)[C@H]1[C@@H]2C [OR-885, 5α,20α, 22α, 25D-SPIROSTAN-3β, 12β-DIOL] | > 10 | > 10 | > 10 | > 10 | > 10 | > 10 |
| > 10 | > 10 | > 10 | > 10 | > 10 | > 10 | CCN(c1ccc(C(O)(C(F)(F)F)C(F)(F)F)cc1)S(=O)(=O)c1ccc([N+](=O)[O-])cc1 [OR-1050, N-Ethyl-4-nitro-N-[4-(2,2,2-trifluoro-1-hydroxy-1-trifluoromethyl-ethyl)-phenyl]-benzenesulfonamide] |  |  |  |  |  |  |
| > 10 | > 10 | > 10 | > 10 | > 10 | > 10 | COc1c(C=NNc2nc(N3CCCCC3)nc(N3CCCCC3)n2)cccc1[N+](=O)[O-] [OR-2161, N-(4,6-Di-piperidin-1-yl-[1,3,5]triazin-2-yl)-N′-(2-methoxy-3-nitro-benzylidene)-hydrazine] |  |  |  |  |  |  |
| > 10 | > 10 | > 10 | > 10 | > 10 | > 10 | CCn1c(CNc2ccc(Cl)cc2)nnc1SCC(=O)Nc1cccc2ccccc12 [OR-133008, 2-{5-[(4-Chloro-phenylamino)-methyl]-4-ethyl-4H-[1,2,4]triazol-3-ylsulfanyl}-N-naphthalen-1-yl-acetamide] |  |  |  |  |  |  |

| SMILES | EC50 [1, 4] [µM] | EC50 (hAR (androgen receptor); [5]) [µM] | EC50 (hPPARγ; [6]) [µM] | EC50 [2, 7] [µM] | EC50 (hPPARα; [8]) [µM] | EC50 [3, 9] [µM] | EC50 [1] [µM] | EC50 (hAR (androgen receptor)) [µM] | EC50 (hPPARγ) [µM] | EC50 [2] [µM] | EC50 (hPPARα) [µM] | EC50 [3] [µM] |
| --- | --- | --- | --- | --- | --- | --- | --- | --- | --- | --- | --- | --- |
| CC(=O)O[C@H]1CC[C@@]2(C)C(CC[C@]3(C)C2C(=O)C=C2C4[C@@H](C)[C@H](C)CC[C@]4(C(=O)O)CC[C@]23C)C1(C)C (stereo in doubt) [OR-13571, 10-Acetoxy-1,2,6a,6b,9,9,12a-heptamethyl-13-oxo-1,3,4,5,6,6a,6b,7,8,8a,9,10,11,12,12a,12b,13,14b-octadecahydro-2H-picene-4a-carboxylic acid] | > 10 | > 10 | > 10 | > 10 | > 10 | > 10 |  |  |  |  |  |  |
| COC(C)CCC(C)C1CCC2C3CC(O)C4CC(O)CCC4(C)C3CCC12C (centres unmarked) [OR-12872, 17-(4-Methoxy-1-methyl-pentyl)-10,13-dimethyl-hexadecahydro-cyclopenta[a]phenanthrene-3,6-diol] | > 10 | > 10 | > 10 | > 10 | > 10 | > 10 |  |  |  |  |  |  |
